Strand notation (5' to 3'): a small letter for the sugar, then the base; units joined by * are phosphorothioate-linked, units joined directly phosphodiester-linked; [ ] holds rarer units or linkages, { } end groups; capitals alone tell only the bases. e = 2'-O-(2-methoxyethyl) (MOE); [5mC] = 5-methylcytosine; d = 2'-deoxy (DNA)
Columns and labels:
Format in all cases: cell-based
human Factor 7 mRNA [1] = assay: Antisense inhibition of human Factor 7 mRNA in HepB3 cells, 50 nM antisense oligonucleotide, lipofectin; conditions: for % Inhibition of human Factor 7 mRNA levels: gapmers targeted to nucleobases 4868 to 4899 of SEQ ID NO: 1, Table 8; for % Inhibition: Table 13 (microwalk), 50 nM, lipofectin, approximately 24 hours
Outline: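 Cells plated at 4,000 per well were transfected and harvested after approximately 24 hours of treatment. Transcript levels, measured with primer probe set RTS 2927, were normalised to total RNA by RIBOGREEN®. Values are percent inhibition relative to untreated control cells.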

human Factor 7 mRNA [2] = assay: Dose-dependent antisense inhibition of human Factor 7 in HepB3 cells, lipofectin; conditions: HepB3 cells, approx. 16 hours (Table 14)
Outline: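 HepB3 cells (4,000/well) lipofectin-transfected with antisense oligonucleotide at 3.125 or 6.25 up to 100 nM for ~16 h. Factor 7 mRNA measured by real-time RT-PCR with primer probe set RTS 2927, adjusted to RIBOGREEN total RNA; expressed as percent inhibition versus untreated control cells.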

human Factor 7 mRNA [3] = assay: Dose-dependent antisense inhibition of human Factor 7 in HepB3 cells, electroporation
Description: (§1) The gapmers were also transfected via electroporation and their dose-dependent inhibition of human Factor 7 mRNA was measured. Cells were plated at a density of 20,000 cells per well and transfected via electroporation with 3.125 μM, 6.25 μM, 12.5 μM, 25 μM, 50 μM, and 100 μM concentrations of antisense oligonucleotide, as specified in Table 15. After a treatment period of approximately 16 hours, RNA was isolated from the cells and Factor 7 mRNA levels were measured by quantitative real-time PCR. Human Factor 7 primer probe set RTS 2927 was used to measure mRNA levels. Factor 7 mRNA levels were adjusted according to total RNA content, as measured by RIBOGREEN®. Results are presented as percent inhibition of Factor 7, relative to untreated control cells.
as §1, with “Cells were” for “The gapmers were also transfected via electroporation and their dose-dependent inhibition of human Factor 7 mRNA was measured. Cells were”, “in […]. After a” for “in Table 15. After a”, “cells and human Factor 7” for “cells and Factor 7”

[4] = 3.125 μM, approx. 16 hours (Table 15, Example 7)
[5] = 3.125 μM, approx. 16 hours (Table 16, Example 8 confirmation)
[6] = 6.25 μM, approx. 16 hours (Table 15, Example 7)
[7] = 6.25 μM, approx. 16 hours (Table 16, Example 8 confirmation)
[8] = 12.5 μM, approx. 16 hours (Table 15, Example 7)
[9] = 12.5 μM, approx. 16 hours (Table 16, Example 8 confirmation)
[10] = 25 μM, approx. 16 hours (Table 15, Example 7)
[11] = 25 μM, approx. 16 hours (Table 16, Example 8 confirmation)
[12] = 50 μM, approx. 16 hours (Table 15, Example 7)
[13] = 50 μM, approx. 16 hours (Table 16, Example 8 confirmation)
[14] = 100 μM, approx. 16 hours (Table 15, Example 7)
[15] = 100 μM, approx. 16 hours (Table 16, Example 8 confirmation)

| Substance | percent inhibition of Factor 7 mRNA, relative to untreated control cells (human Factor 7 mRNA [2]; 3.125 nM) | percent inhibition of Factor 7 mRNA, relative to untreated control cells (human Factor 7 mRNA [2]; 12.5 nM) | percent inhibition of Factor 7 mRNA, relative to untreated control cells (human Factor 7 mRNA [2]; 25 nM) | percent inhibition of Factor 7 mRNA, relative to untreated control cells (human Factor 7 mRNA [2]; 50 nM) | percent inhibition of Factor 7 mRNA, relative to untreated control cells (human Factor 7 mRNA [2]; 100 nM) | percent inhibition of Factor 7 mRNA, relative to untreated control cells (human Factor 7 mRNA [2]) | percent inhibition of Factor 7 mRNA, relative to untreated control cells (human Factor 7 mRNA [3]; [4]) | percent inhibition of Factor 7 mRNA, relative to untreated control cells (human Factor 7 mRNA [3]; [5]) | percent inhibition of Factor 7 mRNA, relative to untreated control cells (human Factor 7 mRNA [3]; [6]) | percent inhibition of Factor 7 mRNA, relative to untreated control cells (human Factor 7 mRNA [3]; [7]) | percent inhibition of Factor 7 mRNA, relative to untreated control cells (human Factor 7 mRNA [3]; [8]) | percent inhibition of Factor 7 mRNA, relative to untreated control cells (human Factor 7 mRNA [3]; [9]) | percent inhibition of Factor 7 mRNA, relative to untreated control cells (human Factor 7 mRNA [3]; [10]) | percent inhibition of Factor 7 mRNA, relative to untreated control cells (human Factor 7 mRNA [3]; [11]) | percent inhibition of Factor 7 mRNA, relative to untreated control cells (human Factor 7 mRNA [3]; [12]) | percent inhibition of Factor 7 mRNA, relative to untreated control cells (human Factor 7 mRNA [3]; [13]) | percent inhibition of Factor 7 mRNA, relative to untreated control cells (human Factor 7 mRNA [3]; [14]) | percent inhibition of Factor 7 mRNA, relative to untreated control cells (human Factor 7 mRNA [3]; [15]) | % Inhibition of human Factor 7 mRNA levels (human Factor 7 mRNA [1]) | % Inhibition (human Factor 7 mRNA [1]) | other results |
| --- | --- | --- | --- | --- | --- | --- | --- | --- | --- | --- | --- | --- | --- | --- | --- | --- | --- | --- | --- | --- | --- |
| 422130 (antisense eG*e[5mC]*e[5mC]*eT*eG*dA*dG*dG*d[5mC]*d[5mC]*dA*dG*d[5mC]*dA*dG*eA*eT*e[5mC]*eA*e[5mC]) [compound 422130] | 4% | 34% | 59% | 77% | 85% | 15% | 28% | 14% | 29% | 24% | 59% | 61% | 61% | 68% | 73% | 82% | 86% | 88% |  |  | % Inhibition (human Factor 7 mRNA levels) (human Factor 7 mRNA [1]; oligonucleotides targeted to nucleobases 14707 to 14732 of SEQ ID NO: 1 (Table 11)): 79% |
| 422140 (antisense eG*eT*eT*e[5mC]*eT*dG*d[5mC]*dA*dG*dG*dA*dG*d[5mC]*dG*dG*e[5mC]*e[5mC]*eT*eA*eA) [compound 422140] | 18% | 49% | 64% | 74% | 74% | 35% | 29% |  | 34% |  | 51% |  | 64% |  | 69% |  | 77% |  | 74% |  |  |
| 422142 (antisense eG*eA*eG*eT*eT*d[5mC]*dT*dG*d[5mC]*dA*dG*dG*dA*dG*d[5mC]*eG*eG*e[5mC]*e[5mC]*eT) [compound 422142] | 16% | 51% | 66% | 72% | 68% | 34% | 26% | 34% | 47% | 47% | 63% | 62% | 67% | 67% | 77% | 65% | 78% | 65% | 73% |  |  |
| 422150 (antisense eG*e[5mC]*eA*dT*dG*dG*dT*dG*dA*dT*dG*d[5mC]*dT*dT*d[5mC]*dT*dG*eA*eA*eT) [compound 422150] | 9% | 38% | 59% | 79% | 87% | 23% | 17% | 0% | 20% | 31% | 40% | 53% | 54% | 67% | 68% | 77% | 83% | 86% |  | 74% |  |
| 422152 (antisense eA*eT*eG*d[5mC]*dA*dT*dG*dG*dT*dG*dA*dT*dG*d[5mC]*dT*dT*d[5mC]*eT*eG*eA) [compound 422152] | 18% | 47% | 67% | 83% | 89% | 29% | 14% |  | 22% |  | 32% |  | 44% |  | 65% |  | 76% |  |  | 74% |  |
| 422177 (antisense e[5mC]*e[5mC]*e[5mC]*dG*d[5mC]*d[5mC]*dG*dG*d[5mC]*dT*d[5mC]*dT*dG*d[5mC]*dT*d[5mC]*dA*eT*e[5mC]*e[5mC]) [compound 422177] | 12% | 44% | 64% | 81% | 88% | 24% | 3% |  | 10% |  | 29% |  | 21% |  | 31% |  | 63% |  |  |  | % Inhibition (human Factor 7 mRNA levels) (human Factor 7 mRNA [1]; oligonucleotides targeted to nucleobases 13760 to 13789 of SEQ ID NO: 1 (Table 10)): 74% |
